Measurements: patent US6989380B2, “Treatment of pain” (The WKK Trust, priority 1996, dated 2006)

Each compound was assayed on intractable trigeminal neuralgia (assay: Case history: intractable trigeminal neuralgia). Conditions: person; treatments tried before the combination; relief attributed to placebo effects.
Format: in vivo, human
Protocol: A person suffered from intractable trigeminal neuralgia of many years standing. […] They then were treated with lofepramine, 70 mg bd, together with L-phenylalanine, 500 mg bd.
`CN1C(=O)CN=C(c2ccccc2)c2cc(Cl)ccc21` [diazepam] was tested, and the “pain relief with earlier treatments” value was “None had provided more than transient relief for a few days”.
With `CNCCC(Oc1ccc(C(F)(F)F)cc1)c1ccccc1` (centres unmarked) [fluoxetine] the “pain relief with earlier treatments” value was “None had provided more than transient relief for a few days”.
`NC(=O)N1c2ccccc2C=Cc2ccccc21` [carbamazepine] was tested, and the “pain relief with earlier treatments” value was “None had provided more than transient relief for a few days”.
In the case of `O=C1NC(=O)C(c2ccccc2)(c2ccccc2)N1` [phenytoin], the “pain relief with earlier treatments” value was “None had provided more than transient relief for a few days”.
For `CN1CC[C@]23c4c5ccc(O)c4O[C@H]2[C@@H](O)C=C[C@H]3[C@H]1C5` [morpine], the “pain relief with earlier treatments” value was “None had provided more than transient relief for a few days”.
